Results taken from ChEMBL document CHEMBL4152362, “Discovery of DS-6930, a potent selective PPARγ modulator. Part II: Lead optimization” (Bioorg Med Chem, 2018).
Converted amounts (≈) assume the structure as drawn. The source made the active and inactive calls. The rule behind the calls is not given here.

How the values were obtained:
[1] = Cmax in F344/DuCrlCrlj rat at 100 mg/kg, po via gavage measured on day 28 post dose; type: ADME, organism-based; design: dose 100 mg/kg, route oral; details: in vivo
[2] = Tmax in F344/DuCrlCrlj rat at 100 mg/kg, po via gavage measured on day 28 post dose; type: ADME, organism-based; details: in vivo
[3] = AUC (0 to 24 hrs) in F344/DuCrlCrlj rat at 100 mg/kg, po via gavage measured on day 28 post dose; type: ADME, organism-based; design: dose 100 mg/kg, time < 24 hr, route oral; details: in vivo
[4] = Cmax in F344/DuCrlCrlj rat at 300 mg/kg, po via gavage measured on day 28 post dose; type: ADME, organism-based; design: dose 300 mg/kg, route oral; details: in vivo
[5] = Tmax in F344/DuCrlCrlj rat at 300 mg/kg, po via gavage measured on day 28 post dose; type: ADME, organism-based; details: in vivo
[6] = AUC (0 to 24 hrs) in F344/DuCrlCrlj rat at 300 mg/kg, po via gavage measured on day 28 post dose; type: ADME, organism-based; design: time < 24 hr, dose 300 mg/kg, route oral; details: in vivo
[7] = Cmax in F344/DuCrlCrlj rat at 1000 mg/kg, po via gavage measured on day 28 post dose; type: ADME, organism-based; design: dose 1000 mg/kg, route oral; details: in vivo
[8] = Tmax in F344/DuCrlCrlj rat at 1000 mg/kg, po via gavage measured on day 28 post dose; type: ADME, organism-based; details: in vivo
[9] = AUC (0 to 24 hrs) in F344/DuCrlCrlj rat at 1000 mg/kg, po via gavage measured on day 28 post dose; type: ADME, organism-based; design: time < 24 hr, dose 1000 mg/kg, route oral; details: in vivo
[10] = Drug uptake in F344/DuCrlCrlj rat plasma administered via oral gavage measured on day 28 post dose; type: ADME
[11] = test system: Rattus norvegicus; experiment: Antidiabetic activity in Zucker diabetic fatty rat assessed as reduction in plasma glucose level at 3 mg/kg, po administered once daily for 14 days measured on day 15 relative to control; type: functional; design: scale not given: the % may be the effect or the level left
[12] = test system: Rattus norvegicus; experiment: Toxicity in Zucker diabetic fatty rat assessed as body weight gain at 3 mg/kg, po administered once daily for 14 days relative to control; type: organism-based; details: in vivo, 336 h
[13] = test system: Rattus norvegicus; experiment: Antidiabetic activity in Zucker diabetic fatty rat assessed as reduction in plasma glucose level administered orally once daily for 21 days measured on day 22; type: functional, organism-based
[14] = test system: Rattus norvegicus; experiment: Antidiabetic activity in Zucker diabetic fatty rat assessed as reduction in plasma glucose level at 0.3 mg/kg, po administered once daily for 21 days measured on day 22 relative to control; type: functional; design: scale not given: the % may be the effect or the level left
[15] = Cmax in Zucker diabetic fatty rat at 0.3 mg/kg, po administered once daily for 21 days followed by additional administration on day 22; type: ADME, organism-based; design: dose 0.3 mg/kg, route oral; details: in vivo
[16] = Tmax in Zucker diabetic fatty rat at 0.3 mg/kg, po administered once daily for 21 days followed by additional administration on day 22; type: ADME, organism-based; details: in vivo
[17] = AUC (0 to 24 hrs) in Zucker diabetic fatty rat at 0.3 mg/kg, po administered once daily for 21 days followed by additional administration on day 22; type: ADME, organism-based; design: dose 0.3 mg/kg, time < 24 hr, route oral; details: in vivo
[18] = Cmax in F344/DuCrlCrlj rat at 50 mg/kg, po via gavage measured on day 28 post dose; type: ADME, organism-based; design: dose 50 mg/kg, route oral; details: in vivo
[19] = AUC (0 to 24 hrs) in F344/DuCrlCrlj rat at 50 mg/kg, po via gavage measured on day 28 post dose; type: ADME, organism-based; design: time < 24 hr, dose 50 mg/kg, route oral; details: in vivo
[20] = test system: Rattus norvegicus; experiment: Toxicity in F344/DuCrlCrlj rat assessed as death at 50 mg/kg, po administered via gavage once daily for 28 days; type: organism-based; details: in vivo, 672 h
[21] = test system: Rattus norvegicus; experiment: Toxicity in F344/DuCrlCrlj rat assessed as clinical abnormality at 50 mg/kg, po administered via gavage once daily for 28 days; type: organism-based; details: in vivo, 672 h
[22] = test system: Rattus norvegicus; experiment: Toxicity in F344/DuCrlCrlj rat assessed as body weight gain at 50 mg/kg, po administered via gavage once daily for 28 days relative to control; type: organism-based; details: in vivo, 672 h
[23] = test system: Rattus norvegicus; experiment: Toxicity in F344/DuCrlCrlj rat assessed as reduction in RBC count at 50 mg/kg, po administered via gavage once daily for 28 days relative to control; type: organism-based; design: scale not given: the % may be the effect or the level left; details: in vivo, 672 h
[24] = test system: Rattus norvegicus; experiment: Toxicity in F344/DuCrlCrlj rat assessed as effect on hematocrit at 50 mg/kg, po administered via gavage once daily for 28 days; type: organism-based; details: in vivo, 672 h
[25] = test system: Rattus norvegicus; experiment: Toxicity in F344/DuCrlCrlj rat assessed as increase in heart weight at 50 mg/kg, po administered via gavage once daily for 28 days; type: organism-based; details: in vivo, 672 h
[26] = test system: Rattus norvegicus; experiment: Toxicity in F344/DuCrlCrlj rat assessed as effect on kidney weight at 50 mg/kg, po administered via gavage once daily for 28 days; type: organism-based; details: in vivo, 672 h
[27] = test system: Rattus norvegicus; experiment: Toxicity in F344/DuCrlCrlj rat assessed as effect on ovary weight at 50 mg/kg, po administered via gavage once daily for 28 days; type: organism-based; details: in vivo, 672 h
[28] = biological target: T1, Peroxisome proliferator-activated receptor gamma (Homo sapiens) (UniProt P37231); experiment: Agonist activity at recombinant human GAL4-TAD fused PPARgamma LBD assessed as induction of GAL4-DBD fused RIP140e184b co-factor recruitment after 24 to 48 hrs by fluorescence assay
T1 sequence (whole entry): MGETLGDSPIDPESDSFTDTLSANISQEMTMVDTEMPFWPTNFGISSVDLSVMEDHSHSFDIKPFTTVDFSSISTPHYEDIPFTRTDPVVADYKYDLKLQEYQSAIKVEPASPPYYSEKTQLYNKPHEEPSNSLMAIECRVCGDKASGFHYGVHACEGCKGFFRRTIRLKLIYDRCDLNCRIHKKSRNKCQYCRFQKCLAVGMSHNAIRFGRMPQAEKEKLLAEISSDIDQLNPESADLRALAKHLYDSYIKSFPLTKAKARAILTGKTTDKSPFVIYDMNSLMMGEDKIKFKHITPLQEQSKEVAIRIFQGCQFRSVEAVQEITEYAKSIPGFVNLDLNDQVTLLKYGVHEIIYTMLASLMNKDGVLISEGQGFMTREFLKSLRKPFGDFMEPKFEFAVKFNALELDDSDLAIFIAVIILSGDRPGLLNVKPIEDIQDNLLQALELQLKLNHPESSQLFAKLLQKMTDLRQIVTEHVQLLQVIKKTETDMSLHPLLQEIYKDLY

[29] = biological target: T1, Peroxisome proliferator-activated receptor gamma (Homo sapiens); experiment: Agonist activity at recombinant human GAL4-TAD fused PPARgamma LBD assessed as induction of GAL4-DBD fused TRAP220 co-factor recruitment after 24 to 48 hrs by fluorescence assay
[30] = biological target: T1, Peroxisome proliferator-activated receptor gamma (Homo sapiens); experiment: Agonist activity at recombinant human GAL4-TAD fused PPARgamma LBD assessed as induction of GAL4-DBD fused CBP co-factor recruitment after 24 to 48 hrs by fluorescence assay
[31] = biological target: T1, Peroxisome proliferator-activated receptor gamma (Homo sapiens); experiment: Agonist activity at recombinant human GAL4-TAD fused PPARgamma LBD assessed as induction of GAL4-DBD fused SRC1 co-factor recruitment after 24 to 48 hrs by fluorescence assay
[32] = biological target: T1, Peroxisome proliferator-activated receptor gamma (Homo sapiens); experiment: Agonist activity at recombinant human GAL4-TAD fused PPARgamma LBD assessed as induction of GAL4-DBD fused NCoA3 co-factor recruitment after 24 to 48 hrs by fluorescence assay
[33] = in vivo; details: F344/DuCrlCrlj, rat, po, 50 mg/kg
Description: Tmax in F344/DuCrlCrlj rat at 50 mg/kg, po via gavage measured on day 28 post dose

[34] = biological target: T2, Peroxisome proliferator-activated receptor alpha (Homo sapiens, UniProt Q07869); experiment: Agonist activity at recombinant human GAL4-DBD fused PPARalpha LBD expressed in COS7 cells after 24 hrs by luciferase reporter gene assay; type: cell-based
T2 sequence (Q07869 whole entry): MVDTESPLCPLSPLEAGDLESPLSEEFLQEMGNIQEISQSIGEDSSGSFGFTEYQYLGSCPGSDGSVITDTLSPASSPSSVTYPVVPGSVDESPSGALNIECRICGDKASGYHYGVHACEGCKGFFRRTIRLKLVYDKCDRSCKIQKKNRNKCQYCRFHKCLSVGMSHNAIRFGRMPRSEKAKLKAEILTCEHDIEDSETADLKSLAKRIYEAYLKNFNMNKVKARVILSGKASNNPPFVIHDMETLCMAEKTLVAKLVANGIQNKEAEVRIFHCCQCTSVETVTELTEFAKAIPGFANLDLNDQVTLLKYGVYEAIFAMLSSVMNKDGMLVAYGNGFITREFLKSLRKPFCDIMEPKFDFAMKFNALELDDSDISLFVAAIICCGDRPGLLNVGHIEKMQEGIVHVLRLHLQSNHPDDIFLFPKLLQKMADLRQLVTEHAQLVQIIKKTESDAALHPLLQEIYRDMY

[35] = 1-octanol/PBS distribution co-efficient, log D of the compound at […] at pH 7.4 after 30 mins by HPLC-MS/MS method; type: physicochemical
[36] = Aqueous thermodynamic solubility of the compound in pH 6.8 solution up to 4 hrs by HPLC-UV analysis; type: physicochemical; details: read-out: Therm_solubility
[37] = Apparent permeability of the compound after 4 hrs by PAMPA; type: ADME
[38] = Metabolic stability in human liver microsomes after 0.5 hrs; type: ADME, microsome; details: read-out: Stability
[39] = Cmax in cynomolgus monkey at 3 mg/kg, po by LC-MS/MS; type: ADME, organism-based, Macaca fascicularis; design: dose 3 mg/kg, route oral; details: in vivo
[40] = Tmax in cynomolgus monkey at 3 mg/kg, po by LC-MS/MS; type: ADME, organism-based, Macaca fascicularis; details: in vivo
[41] = Half life in cynomolgus monkey at 3 mg/kg, po by LC-MS/MS; type: ADME, organism-based, Macaca fascicularis; details: in vivo
[42] = AUClast in cynomolgus monkey at 3 mg/kg, po by LC-MS/MS; type: ADME, organism-based, Macaca fascicularis; design: dose 3 mg/kg, time 0 - last, route oral; details: in vivo
[43] = Oral bioavailability in cynomolgus monkey at 3 mg/kg by LC-MS/MS; type: ADME, organism-based, Macaca fascicularis; details: in vivo
[44] = Clearance in cynomolgus monkey at 1 mg/kg, iv by LC-MS/MS; type: ADME, organism-based, Macaca fascicularis; details: in vivo
[45] = Volume of distribution at steady state in cynomolgus monkey at 1 mg/kg, iv by LC-MS/MS; type: ADME, organism-based, Macaca fascicularis; details: in vivo, read-out: Vdss
[46] = test system: Hepatocyte; experiment: Cytotoxicity against F344/DuCrlCrlj rat primary hepatocytes assessed as reduction in mitochondrial enzyme activity at 10 to 100 uM after 24 hrs by WST8 assay; type: cell-based
[47] = test system: Hepatocyte; experiment: Cytotoxicity against F344/DuCrlCrlj rat primary hepatocytes assessed as reduction in cell viability at 10 to 100 uM after 24 hrs by LDH release assay; type: cell-based
[48] = test system: Hepatocyte; experiment: Cytotoxicity against F344/DuCrlCrlj rat primary hepatocytes assessed as reduction in cell viability at 100 uM after 24 hrs by LDH release assay; type: cell-based

SMILES: Cc1cnc(Oc2ccc3nc(COc4cccc(C(=O)O)c4)n(C)c3c2)c(C)c1.Cl
- Cmax [1]: 92.8 µg/mL
- Tmax [2]: 0.5 h
- AUC at 24 h [3]: 399 µg·h/mL
- Cmax [4]: 206 µg/mL
- Tmax [5]: 0.5 h
- AUC at 24 h [6]: 933 µg·h/mL
- Cmax [7]: 273 µg/mL
- Tmax [8]: 1 h
- AUC at 24 h [9]: 1080 µg·h/mL
- Drug uptake [10]: Dose-dependent effect

SMILES: CN(CCOc1ccc(CC2SC(=O)NC2=O)cc1)c1ccccn1 (centres undefined) [ROSIGLITAZONE]
- Activity [11]: 40.3%
- Activity [12]: 12.6%
- Activity [13]: Dose-dependent effect
- Activity [14]: 50%
- Cmax [15]: 1.04 µg/mL
- Tmax [16]: 1.6 h
- AUC at 24 h [17]: 6.55 µg·h/mL
- Cmax [18]: 67.6 µg/mL
- AUC at 24 h [19]: 525 µg·h/mL
- Drug uptake [10]: Dose-dependent effect
- Activity [20]: Non-Toxic
- Activity [21]: Non-Toxic
- Activity [22]: 10%
- Activity [23]: 13%
- Activity [24]: Non-Toxic
- Activity [25]: 18%
- Activity [26]: Toxic
- Activity [27]: Toxic
- Activity [28]: Active
- Activity [29]: Active
- Activity [30]: Active
- Activity [31]: Active
- Activity [32]: Active
- Tmax [33]: 1 h

SMILES: Cc1cnc(Oc2ccc3nc(COc4cccc(C(=O)O)c4)n(C)c3c2)c(F)c1
- EC50 [34]: > 10 µM
- logD at 0.5 h [35]: 1.1
- solubility thermodynamic at 4 h [36]: 9.2 µg/mL (≈ 22.6 µM)
- Papp at 4 h [37]: 58 nm/s
- remaining at 0.5 h [38]: 100%
- Cmax [39]: 0.1 µg/mL
- Tmax [40]: 4 h
- half-life [41]: 49.8 h
- AUC(0-t) [42]: 1.47 µg·h/mL
- bioavailability [43]: 8.9%
- clearance [44]: 0.184 L/h/kg
- Vd [45]: 0.88 L/kg
- Activity [46]: Non-Toxic
- Activity [47]: Non-Toxic
- Activity [48]: Toxic
